Measured values: PubChem BioAssay AID651964 (The Scripps Research Institute Molecular Screening Center, 2012)

Experiments:
Test in all cases: PubChem AID 651964; call rule not given here
GCLM = conditions: mouse embryonic fibroblasts, qRT-PCR mRNA fold induction, at 10 µM (top of the series)
Hsp70 = conditions: mouse embryonic fibroblasts, qRT-PCR mRNA fold induction, at 10 µM (top of the series)
HO-1 = conditions: mouse embryonic fibroblasts, qRT-PCR mRNA fold induction, at 10 µM (top of the series)
[1] = biological target: DNA damage-inducible transcript 3 protein (Mus musculus) (UniProt P35639); conditions: mouse embryonic fibroblasts, qRT-PCR mRNA fold induction; CHOP; at 10 µM (top of the series)
Chain of DNA damage-inducible transcript 3 protein (Mus musculus) (P35639 whole entry, looked up): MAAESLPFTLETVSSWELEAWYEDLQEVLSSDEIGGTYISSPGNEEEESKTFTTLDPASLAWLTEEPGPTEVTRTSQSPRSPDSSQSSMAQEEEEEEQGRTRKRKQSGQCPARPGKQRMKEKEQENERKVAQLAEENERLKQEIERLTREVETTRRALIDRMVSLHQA

BiP = conditions: mouse embryonic fibroblasts, qRT-PCR mRNA fold induction, at 10 µM (top of the series)

Measured: fold induction of mRNA

COc1ccc(/C=C/C=C2C(=O)NC(=O)NC2=O)cc1
active: GCLM 1.6 | Hsp70 18.9 | HO-1 5.54 | [1] 2.08 | BiP 2.18
